Measurements reported in patent publication US12194124B2, “Personal care compositions for treating odor causing bacteria and methods for the same” (Colgate-Palmolive Company, priority 2019, dated 2025).

System: S. Epidermidis
Assay: Growth inhibition assay in 96-well plate, optical density of S. Epidermidis
Format: cell-based, Staphylococcus epidermidis
Procedure: The efficacy of 2-butyl octanol for selectively promoting, inhibiting, reducing, and/or treating bacterial growth was evaluated. Particularly, the efficacy of 2-butyl octanol for selectively promoting, inhibiting, reducing, and/or treating bacterial growth of Corynebacterium and Staphylococcus was evaluated. To evaluate the efficacy, an active solution was prepared by emulsifying 2-butyl octanol with a nonionic surfactant, namely, Polysorbate 80. The active solution included the 2-butyl octanol and the Polysorbate 80 in a ratio of about 83:17. Both positive controls (including no active solution) and negative controls (including no bacteria) were also prepared.
A 96-well plate was utilized to evaluate the growth of the respective bacteria at varying dilutions. Each of the wells of a 96-well plate was aseptically filled with about 100 μL of Tryptic Soy Broth (TSB). In the first well of each row, about 100 μL of either the active solution (including the 2-butyl octanol and Polysorbate 80) or the desired solvent for the respective positive and negative controls was added to thereby provide a total of about 200 μL in the first well of the each respective row. A multi-channel pipette was then utilized to prepare a two-fold dilution in each column. Specifically, a multi-channel pipette set to about 100 μL was utilized to mix and transfer about 100 μL of the 200 μL from the wells of the first column to the respective wells of a subsequent column. This was repeated for each of the remaining eleven columns. About 100 μL of the twelfth column was removed, thereby leaving about 100 μL in each of the 96 wells. […] Specifically, a phosphate buffered saline (PBS) was utilized for the negative control. About 100 μL of the respective bacteria adjusted to 0.1 optical density (OD) bacteria was added to all other wells. The well plate was then incubated overnight at about 37° C. in a growth inhibition assay machine. Measurements were taken at about one hour increments.

Structure (SMILES): CCCCCCC(CO)CCCC (stereo not shown) [2-butyl octanol, 2-butyl-1-octanol]
- Measured Optical Density of S. Epidermidis (0.02% 2-Butyl Octanol, 1 Hour): 0.07
- Measured Optical Density of S. Epidermidis (0.02% 2-Butyl Octanol, 2 Hour): 0.327
- Measured Optical Density of S. Epidermidis (0.02% 2-Butyl Octanol, 3 Hour): 0.519
- Measured Optical Density of S. Epidermidis (0.02% 2-Butyl Octanol, 4 Hour): 0.561
- Measured Optical Density of S. Epidermidis (0.02% 2-Butyl Octanol, 5 Hour): 0.548
- Measured Optical Density of S. Epidermidis (0.02% 2-Butyl Octanol, 6 Hour): 0.564
- Measured Optical Density of S. Epidermidis (0.02% 2-Butyl Octanol, 7 Hour): 0.586
- Measured Optical Density of S. Epidermidis (0.02% 2-Butyl Octanol, 8 Hour): 0.593
- Measured Optical Density of S. Epidermidis (0.02% 2-Butyl Octanol, 9 Hour): 0.602
- Measured Optical Density of S. Epidermidis (0.02% 2-Butyl Octanol, 10 Hour): 0.623
- Measured Optical Density of S. Epidermidis (0.02% 2-Butyl Octanol, 11 Hour): 0.652
- Measured Optical Density of S. Epidermidis (0.02% 2-Butyl Octanol, 12 Hour): 0.651
- Measured Optical Density of S. Epidermidis (0.02% 2-Butyl Octanol, 13 Hour): 0.66
- Measured Optical Density of S. Epidermidis (0.02% 2-Butyl Octanol, 14 Hour): 0.689
- Measured Optical Density of S. Epidermidis (0.02% 2-Butyl Octanol, 15 Hour): 0.809
- Measured Optical Density of S. Epidermidis (0.02% 2-Butyl Octanol, 16 Hour): 0.893
- Measured Optical Density of S. Epidermidis (0.02% 2-Butyl Octanol, 17 Hour): 0.951
- Measured Optical Density of S. Epidermidis (0.02% 2-Butyl Octanol, 18 Hour): 0.97
- Measured Optical Density of S. Epidermidis (0.04% 2-Butyl Octanol, 1 Hour): 0.088
- Measured Optical Density of S. Epidermidis (0.04% 2-Butyl Octanol, 2 Hour): 0.351
- Measured Optical Density of S. Epidermidis (0.04% 2-Butyl Octanol, 3 Hour): 0.55
- Measured Optical Density of S. Epidermidis (0.04% 2-Butyl Octanol, 4 Hour): 0.583
- Measured Optical Density of S. Epidermidis (0.04% 2-Butyl Octanol, 5 Hour): 0.578
- Measured Optical Density of S. Epidermidis (0.04% 2-Butyl Octanol, 6 Hour): 0.592
- Measured Optical Density of S. Epidermidis (0.04% 2-Butyl Octanol, 7 Hour): 0.613
- Measured Optical Density of S. Epidermidis (0.04% 2-Butyl Octanol, 8 Hour): 0.64
- Measured Optical Density of S. Epidermidis (0.04% 2-Butyl Octanol, 9 Hour): 0.651
- Measured Optical Density of S. Epidermidis (0.04% 2-Butyl Octanol, 10 Hour): 0.664
- Measured Optical Density of S. Epidermidis (0.04% 2-Butyl Octanol, 11 Hour): 0.666
- Measured Optical Density of S. Epidermidis (0.04% 2-Butyl Octanol, 12 Hour): 0.656
- Measured Optical Density of S. Epidermidis (0.04% 2-Butyl Octanol, 13 Hour): 0.652
- Measured Optical Density of S. Epidermidis (0.04% 2-Butyl Octanol, 14 Hour): 0.675
- Measured Optical Density of S. Epidermidis (0.04% 2-Butyl Octanol, 15 Hour): 0.756
- Measured Optical Density of S. Epidermidis (0.04% 2-Butyl Octanol, 16 Hour): 0.825
- Measured Optical Density of S. Epidermidis (0.04% 2-Butyl Octanol, 17 Hour): 0.915
- Measured Optical Density of S. Epidermidis (0.04% 2-Butyl Octanol, 18 Hour): 0.961
- Measured Optical Density of S. Epidermidis (0.08% 2-Butyl Octanol, 1 Hour): 0.111
- Measured Optical Density of S. Epidermidis (0.08% 2-Butyl Octanol, 2 Hour): 0.482
- Measured Optical Density of S. Epidermidis (0.08% 2-Butyl Octanol, 3 Hour): 0.688
- Measured Optical Density of S. Epidermidis (0.08% 2-Butyl Octanol, 4 Hour): 0.703
- Measured Optical Density of S. Epidermidis (0.08% 2-Butyl Octanol, 5 Hour): 0.684
- Measured Optical Density of S. Epidermidis (0.08% 2-Butyl Octanol, 6 Hour): 0.677
- Measured Optical Density of S. Epidermidis (0.08% 2-Butyl Octanol, 7 Hour): 0.662
- Measured Optical Density of S. Epidermidis (0.08% 2-Butyl Octanol, 8 Hour): 0.652
- Measured Optical Density of S. Epidermidis (0.08% 2-Butyl Octanol, 9 Hour): 0.653
- Measured Optical Density of S. Epidermidis (0.08% 2-Butyl Octanol, 10 Hour): 0.658
- Measured Optical Density of S. Epidermidis (0.08% 2-Butyl Octanol, 11 Hour): 0.646
- Measured Optical Density of S. Epidermidis (0.08% 2-Butyl Octanol, 12 Hour): 0.63
- Measured Optical Density of S. Epidermidis (0.08% 2-Butyl Octanol, 13 Hour): 0.632
- Measured Optical Density of S. Epidermidis (0.08% 2-Butyl Octanol, 14 Hour): 0.662
- Measured Optical Density of S. Epidermidis (0.08% 2-Butyl Octanol, 15 Hour): 0.741
- Measured Optical Density of S. Epidermidis (0.08% 2-Butyl Octanol, 16 Hour): 0.795
- Measured Optical Density of S. Epidermidis (0.08% 2-Butyl Octanol, 17 Hour): 0.883
- Measured Optical Density of S. Epidermidis (0.08% 2-Butyl Octanol, 18 Hour): 0.943
- Measured Optical Density of S. Epidermidis (0.16% 2-Butyl Octanol, 1 Hour): 0.148
- Measured Optical Density of S. Epidermidis (0.16% 2-Butyl Octanol, 2 Hour): 0.564
- Measured Optical Density of S. Epidermidis (0.16% 2-Butyl Octanol, 3 Hour): 0.76
- Measured Optical Density of S. Epidermidis (0.16% 2-Butyl Octanol, 4 Hour): 0.786
- Measured Optical Density of S. Epidermidis (0.16% 2-Butyl Octanol, 5 Hour): 0.778
- Measured Optical Density of S. Epidermidis (0.16% 2-Butyl Octanol, 6 Hour): 0.764
- Measured Optical Density of S. Epidermidis (0.16% 2-Butyl Octanol, 7 Hour): 0.757
- Measured Optical Density of S. Epidermidis (0.16% 2-Butyl Octanol, 8 Hour): 0.741
- Measured Optical Density of S. Epidermidis (0.16% 2-Butyl Octanol, 9 Hour): 0.729
- Measured Optical Density of S. Epidermidis (0.16% 2-Butyl Octanol, 10 Hour): 0.726
- Measured Optical Density of S. Epidermidis (0.16% 2-Butyl Octanol, 11 Hour): 0.718
- Measured Optical Density of S. Epidermidis (0.16% 2-Butyl Octanol, 12 Hour): 0.702
- Measured Optical Density of S. Epidermidis (0.16% 2-Butyl Octanol, 13 Hour): 0.695
- Measured Optical Density of S. Epidermidis (0.16% 2-Butyl Octanol, 14 Hour): 0.702
- Measured Optical Density of S. Epidermidis (0.16% 2-Butyl Octanol, 15 Hour): 0.764
- Measured Optical Density of S. Epidermidis (0.16% 2-Butyl Octanol, 16 Hour): 0.801
- Measured Optical Density of S. Epidermidis (0.16% 2-Butyl Octanol, 17 Hour): 0.844
- Measured Optical Density of S. Epidermidis (0.16% 2-Butyl Octanol, 18 Hour): 0.874
- growth of S. epidermidis (2-butyl octanol about 0.02 weight % to about 5.2 weight %): did not inhibit the growth of and/or promoted the growth of
- Measured Optical Density of S. Epidermidis (5.2% 2-Butyl Octanol, 1 Hour): 0.257
- Measured Optical Density of S. Epidermidis (5.2% 2-Butyl Octanol, 2 Hour): 0.501
- Measured Optical Density of S. Epidermidis (5.2% 2-Butyl Octanol, 3 Hour): 0.583
- Measured Optical Density of S. Epidermidis (5.2% 2-Butyl Octanol, 4 Hour): 0.624
- Measured Optical Density of S. Epidermidis (5.2% 2-Butyl Octanol, 5 Hour): 0.665
- Measured Optical Density of S. Epidermidis (5.2% 2-Butyl Octanol, 6 Hour): 0.723
- Measured Optical Density of S. Epidermidis (5.2% 2-Butyl Octanol, 7 Hour): 0.855
- Measured Optical Density of S. Epidermidis (5.2% 2-Butyl Octanol, 8 Hour): 0.918
- Measured Optical Density of S. Epidermidis (5.2% 2-Butyl Octanol, 9 Hour): 0.994
- Measured Optical Density of S. Epidermidis (5.2% 2-Butyl Octanol, 10 Hour): 1.052
- Measured Optical Density of S. Epidermidis (5.2% 2-Butyl Octanol, 11 Hour): 1.067
- Measured Optical Density of S. Epidermidis (5.2% 2-Butyl Octanol, 12 Hour): 1.066
- Measured Optical Density of S. Epidermidis (5.2% 2-Butyl Octanol, 13 Hour): 1.081
- Measured Optical Density of S. Epidermidis (5.2% 2-Butyl Octanol, 14 Hour): 1.105
- Measured Optical Density of S. Epidermidis (5.2% 2-Butyl Octanol, 15 Hour): 1.118
- Measured Optical Density of S. Epidermidis (5.2% 2-Butyl Octanol, 16 Hour): 1.127
- Measured Optical Density of S. Epidermidis (5.2% 2-Butyl Octanol, 17 Hour): 1.142
- Measured Optical Density of S. Epidermidis (5.2% 2-Butyl Octanol, 18 Hour): 1.127
